Source: the NIST ThermoML archive (doi:10.1016/j.jct.2017.04.017)
Numbers after ± are expanded uncertainties.

Tests used:
[1] = Molar enthalpy of transition or fusion; settings: Crystal; DSC
[2] = Crystal; DTA

Structure (SMILES): O=C(Nc1ccccc1-c1ccc(Cl)cc1)c1cccnc1Cl [Boscalid]
- Molar enthalpy of transition or fusion [1]: 8.9 ± 0.335 kcal/mol
- Normal melting temperature [2]: 146.73 ± 0.61 °C
